# Test system: HBsAg
# Test: HBsAg assay: inhibition of HBsAg in HepG2.2.15 cells (CLIA immunoassay of supernatant)
# Format: cell-based, hepatitis B virus (HBV)
# Conditions: read-out: sAg EC50; HepG2.2.15 cells; supernatant collected at day 6 after exposure; HBsAg chemiluminescence immunoassay
# Procedure: Inhibition of HBsAg was determined in HepG2.2.15 cells. Cells were maintained in culture medium containing 10% fetal calf serum, […], Glutamine, penicillin/streptomycin. Cells were seeded in 96-well collagen-coated plate at a density of 30,000 cells/well. Serially diluted compounds were added to cells next day at the final DMSO concentration of 0.5%. Cells were incubated with compounds for 2-3 days, after which medium was removed. Fresh medium containing compounds was added to cells for additional 3-4 days. At day 6 after exposure of compounds, supernatant was collected, the HBsAg immunoassay (microplate-based chemiluminescence immunoassay kits, CLIA, Autobio Diagnosics Co., Zhengzhou, China, Catalog #CL0310-2) was used to determine the level of HBsAg according to manufactory instruction. Dose-response curves were generated and the EC50 value (effective concentrations that achieved 50% inhibitory effect) were determined using XLfit software. In addition, cells can be seeded at a density of 5,000 cells/well for determination of cell viability in the presence and absence of compounds by using CellTiter-Glo reagent (Promega). Tables 1-3 show EC50 values obtained by the HBsAg assay for selected compounds.
row,Compound,EC50 [nM]
1,"COCCCOc1cc2c(cc1OC)-c1[nH]c(=O)c(C(=O)O)cc1C(C(C)C)C2 (single isomer, unassigned) [Example 2, 5-Isopropyl-9-methoxy-8-(3-methoxypropoxy)-2-oxo-1,2,5,6-tetrahydrobenzo[h]quinoline-3-carboxylic acid]",11
2,"COCCCOc1cc2c(cc1OC)-c1[nH]c(=O)c(C(=O)O)cc1C(C(C)C)C2 (single isomer, unassigned) [Example 3, 5-Isopropyl-9-methoxy-8-(3-methoxypropoxy)-2-oxo-1,2,5,6-tetrahydrobenzo[h]quinoline-3-carboxylic acid]",2000
3,"COCCCOc1cc2c(cc1OC)-c1[nH]c(=O)c(C(=O)O)cc1C(C)(C(C)C)C2 (single isomer, unassigned) [Example 7, 5-Isopropyl-9-methoxy-8-(3-methoxypropoxy)-5-methyl-2-oxo-1,6-dihydrobenzo[h]quinoline-3-carboxylic acid]",22
4,"COCCCOc1cc2c(cc1OC)-c1[nH]c(=O)c(C(=O)O)cc1C(C)(C(C)C)C2 (single isomer, unassigned) [Example 8, 5-Isopropyl-9-methoxy-8-(3-methoxypropoxy)-5-methyl-2-oxo-1,6-dihydrobenzo[h]quinoline-3-carboxylic acid]",2500
5,"COCCCOc1cc2c(cc1Cl)-c1[nH]c(=O)c(C(=O)O)cc1C(C)(C(C)C)C2 (single isomer, unassigned) [Example 10, 9-Chloro-5-isopropyl-8-(3-methoxypropoxy)-5-methyl-2-oxo-1,6-dihydrobenzo[h]quinoline-3-carboxylic acid]",25
6,"COCCCOc1cc2c(cc1Cl)-c1[nH]c(=O)c(C(=O)O)cc1C(C)(C(C)C)C2 (single isomer, unassigned) [Example 11, 9-Chloro-5-isopropyl-8-(3-methoxypropoxy)-5-methyl-2-oxo-1,6-dihydrobenzo[h]quinoline-3-carboxylic acid]",250
7,"COCCCOc1cc2c(cc1Cl)-c1[nH]c(=O)c(C(=O)O)c(O)c1C(C)(C(C)C)C2 (single isomer, unassigned) [Example 15, 9-Chloro-4-hydroxy-5-isopropyl-8-(3-methoxypropoxy)-5-methyl-2-oxo-1,2,5,6-tetrahydrobenzo[h]quinoline-3-carboxylic acid]",18
8,"COCCCOc1cc2c(cc1Cl)-c1[nH]c(=O)c(C(=O)O)c(O)c1C(C)(C(C)C)C2 (single isomer, unassigned) [Example 16, 9-Chloro-4-hydroxy-5-isopropyl-8-(3-methoxypropoxy)-5-methyl-2-oxo-1,2,5,6-tetrahydrobenzo[h]quinoline-3-carboxylic acid]",2000
9,"COCCCOc1cc2c(nc1Cl)-c1[nH]c(=O)c(C(=O)O)c(O)c1C(C(C)C)C2 (single isomer, unassigned) [Example 27, 9-Chloro-4-hydroxy-5-isopropyl-8-(3-methoxypropoxy)-2-oxo-1,2,5,6-tetrahydro-1,10-phenanthroline-3-carboxylic acid]",2
10,"COCCCOc1cc2c(nc1Cl)-c1[nH]c(=O)c(C(=O)O)c(O)c1C(C(C)C)C2 (single isomer, unassigned) [Example 28, 9-Chloro-4-hydroxy-5-isopropyl-8-(3-methoxypropoxy)-2-oxo-1,2,5,6-tetrahydro-1,10-phenanthroline-3-carboxylic acid]",43
11,"COCCCOc1cc2c(cc1OC)-c1[nH]c(=O)c(C(=O)O)c(O)c1C(C)(C(C)C)C2 (single isomer, unassigned) [Example 31, 4-Hydroxy-5-isopropyl-9-methoxy-8-(3-methoxypropoxy)-5-methyl-2-oxo-1,2,5,6-tetrahydrobenzo[h]quinoline-3-carboxylic acid]",27
12,"COCCCOc1cc2c(cc1OC)-c1[nH]c(=O)c(C(=O)O)c(O)c1C(C)(C(C)C)C2 (single isomer, unassigned) [Example 32, 4-Hydroxy-5-isopropyl-9-methoxy-8-(3-methoxypropoxy)-5-methyl-2-oxo-1,2,5,6-tetrahydrobenzo[h]quinoline-3-carboxylic acid]",10000

# Reference: patent publication US11702427B2 (priority 2018, dated 2023)
